# Earlier results in patent US20070122456A1, “Nicotine and Cocoa Powder Compositions” (priority 2001, published 2007).
# Settings: intravenous infusion; smokers and non-smokers similarly
compound,measurement,value
CN1CCCC1c1cccnc1 (stereo not shown) [nicotine],increase of resting metabolic rate,6.5%
